Columns and labels:
Experiment in all cases: relative viability (nuclei count vs DMSO), 5 days (fraction); higher = more cells survive
EPLC-272H = system: EPLC-272H
Summary of the method: (§1)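 Values are medians from duplicate plates. Each reflects relative viability, defined as the nuclei count of treated wells over that of vehicle wells. Lung cancer cell lines in 1536-well plates were pin-tool dosed one day after seeding with one drug alone or with a fixed anchor-drug dose plus five library-drug doses (not always all listed) in √10 steps, then fixed, stained and imaged at 4× after 5 days.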

H3255 = system: H3255
Summary of the method: as §1

HARA = system: HARA
Summary of the method: as §1

LC-2-ad = system: LC-2-ad
Summary of the method: as §1

LOU-NH91 = system: LOU-NH91
Summary of the method: as §1

NCI-H1650 = system: NCI-H1650
Summary of the method: as §1

NCI-H1651 = system: NCI-H1651
Summary of the method: as §1

NCI-H1975 = system: NCI-H1975
Summary of the method: as §1

NCI-H2009 = system: NCI-H2009
Summary of the method: as §1

NCI-H2023 = system: NCI-H2023
Summary of the method: as §1

NCI-H2085 = system: NCI-H2085
Summary of the method: as §1

NCI-H2087 = system: NCI-H2087
Summary of the method: as §1

NCI-H2170 = system: NCI-H2170
Summary of the method: as §1

NCI-H2228 = system: NCI-H2228
Summary of the method: as §1

NCI-H23 = system: NCI-H23
Summary of the method: as §1

NCI-H441 = system: NCI-H441
Summary of the method: as §1

NCI-H650 = system: NCI-H650
Summary of the method: as §1

NCI-H727 = system: NCI-H727
Summary of the method: as §1

NCI-H838 = system: NCI-H838
Summary of the method: as §1

PC-3 [JPC-3] = system: PC-3 [JPC-3]
Summary of the method: as §1

SW 1573 = system: SW 1573
Summary of the method: as §1

SW 900 = system: SW 900
Summary of the method: as §1

UMC-11 = system: UMC-11
Summary of the method: as §1

CCNC(=O)c1noc(-c2cc(C(C)C)c(O)cc2O)c1-c1ccc(CN2CCOCC2)cc1 [Luminespib] + N=C(N)NC(=N)NCCc1ccccc1 [Phenformin] (partner 250 µM) gave a relative viability (EPLC-272H; first compound 0.002 µM) of 0.307, a relative viability (EPLC-272H; first compound 0.006325 µM) of 0.291 and a relative viability (EPLC-272H; first compound 0.06325 µM) of 0.271. The relative viability (EPLC-272H; first compound 0.2 µM) was 0.0832, the relative viability (H3255; first compound 0.002 µM) was 0.328 and the relative viability (H3255; first compound 0.006325 µM) was 0.347. For the same compound, the relative viability (H3255; first compound 0.06325 µM) was 0.319, the relative viability (H3255; first compound 0.2 µM) was 0.187 and the relative viability (HARA; first compound 0.002 µM) was 0.484. It also gave a relative viability (HARA; first compound 0.006325 µM) of 0.422, a relative viability (HARA; first compound 0.02 µM) of 0.485 and a relative viability (HARA; first compound 0.06325 µM) of 0.245. The relative viability (HARA; first compound 0.2 µM) was 0.0594, the relative viability (LC-2-ad; first compound 0.002 µM) was 0.531 and the relative viability (LC-2-ad; first compound 0.006325 µM) was 0.497. For the same compound, the relative viability (LC-2-ad; first compound 0.02 µM) was 0.551, the relative viability (LC-2-ad; first compound 0.06325 µM) was 0.25 and the relative viability (LC-2-ad; first compound 0.2 µM) was 0.231. The relative viability (LOU-NH91; first compound 0.002 µM) was 0.741, the relative viability (LOU-NH91; first compound 0.006325 µM) was 0.716 and the relative viability (LOU-NH91; first compound 0.02 µM) was 0.525. The relative viability (LOU-NH91; first compound 0.06325 µM) was 0.287, the relative viability (LOU-NH91; first compound 0.2 µM) was 0.322 and the relative viability (NCI-H1650; first compound 0.002 µM) was 0.48. The relative viability (NCI-H1650; first compound 0.006325 µM) was 0.219, the relative viability (NCI-H1650; first compound 0.02 µM) was 0.165 and the relative viability (NCI-H1650; first compound 0.06325 µM) was 0.15. It also gave a relative viability (NCI-H1650; first compound 0.2 µM) of 0.159, a relative viability (NCI-H1651; first compound 0.002 µM) of 0.298 and a relative viability (NCI-H1651; first compound 0.006325 µM) of 0.293. For the same compound, the relative viability (NCI-H1651; first compound 0.02 µM) was 0.304, the relative viability (NCI-H1651; first compound 0.06325 µM) was 0.108 and the relative viability (NCI-H1651; first compound 0.2 µM) was 0.141. The relative viability (NCI-H1975; first compound 0.002 µM) was 0.401, the relative viability (NCI-H1975; first compound 0.006325 µM) was 0.37 and the relative viability (NCI-H1975; first compound 0.02 µM) was 0.169. The relative viability (NCI-H1975; first compound 0.06325 µM) was 0.118, the relative viability (NCI-H1975; first compound 0.2 µM) was 0.118 and the relative viability (NCI-H2009; first compound 0.002 µM) was 0.543. It also gave a relative viability (NCI-H2009; first compound 0.006325 µM) of 0.44, a relative viability (NCI-H2009; first compound 0.02 µM) of 0.487 and a relative viability (NCI-H2009; first compound 0.06325 µM) of 0.0851. It also gave a relative viability (NCI-H2009; first compound 0.2 µM) of 0.103, a relative viability (NCI-H2023; first compound 0.002 µM) of 0.39 and a relative viability (NCI-H2023; first compound 0.006325 µM) of 0.376. The relative viability (NCI-H2023; first compound 0.02 µM) was 0.287, the relative viability (NCI-H2023; first compound 0.06325 µM) was 0.0664 and the relative viability (NCI-H2023; first compound 0.2 µM) was 0.0658. It also gave a relative viability (NCI-H2085; first compound 0.002 µM) of 0.807, a relative viability (NCI-H2085; first compound 0.006325 µM) of 0.713 and a relative viability (NCI-H2085; first compound 0.02 µM) of 0.408. The relative viability (NCI-H2085; first compound 0.06325 µM) was 0.221, the relative viability (NCI-H2085; first compound 0.2 µM) was 0.225 and the relative viability (NCI-H2087; first compound 0.002 µM) was 0.493. It also gave a relative viability (NCI-H2087; first compound 0.006325 µM) of 0.362, a relative viability (NCI-H2087; first compound 0.02 µM) of 0.267 and a relative viability (NCI-H2087; first compound 0.06325 µM) of 0.136. The relative viability (NCI-H2087; first compound 0.2 µM) was 0.115, the relative viability (NCI-H2170; first compound 0.002 µM) was 0.405 and the relative viability (NCI-H2170; first compound 0.006325 µM) was 0.398. It also gave a relative viability (NCI-H2170; first compound 0.02 µM) of 0.376, a relative viability (NCI-H2170; first compound 0.06325 µM) of 0.236 and a relative viability (NCI-H2170; first compound 0.2 µM) of 0.158. The relative viability (NCI-H2228; first compound 0.002 µM) was 0.314, the relative viability (NCI-H2228; first compound 0.006325 µM) was 0.288 and the relative viability (NCI-H2228; first compound 0.02 µM) was 0.115. It also gave a relative viability (NCI-H2228; first compound 0.06325 µM) of 0.102, a relative viability (NCI-H2228; first compound 0.2 µM) of 0.0912 and a relative viability (NCI-H23; first compound 0.002 µM) of 0.821. It also gave a relative viability (NCI-H23; first compound 0.006325 µM) of 0.727, a relative viability (NCI-H23; first compound 0.02 µM) of 0.611 and a relative viability (NCI-H23; first compound 0.06325 µM) of 0.359. The relative viability (NCI-H23; first compound 0.2 µM) was 0.16, the relative viability (NCI-H441; first compound 0.002 µM) was 0.841 and the relative viability (NCI-H441; first compound 0.006325 µM) was 0.689. For the same compound, the relative viability (NCI-H441; first compound 0.02 µM) was 0.732, the relative viability (NCI-H441; first compound 0.06325 µM) was 0.216 and the relative viability (NCI-H441; first compound 0.2 µM) was 0.135. For the same compound, the relative viability (NCI-H650; first compound 0.002 µM) was 0.437, the relative viability (NCI-H650; first compound 0.006325 µM) was 0.453 and the relative viability (NCI-H650; first compound 0.02 µM) was 0.391. It also gave a relative viability (NCI-H650; first compound 0.06325 µM) of 0.213, a relative viability (NCI-H650; first compound 0.2 µM) of 0.121 and a relative viability (NCI-H727; first compound 0.002 µM) of 0.564. It also gave a relative viability (NCI-H727; first compound 0.006325 µM) of 0.398, a relative viability (NCI-H727; first compound 0.02 µM) of 0.361 and a relative viability (NCI-H727; first compound 0.06325 µM) of 0.318. For the same compound, the relative viability (NCI-H727; first compound 0.2 µM) was 0.175, the relative viability (NCI-H838; first compound 0.002 µM) was 0.664 and the relative viability (NCI-H838; first compound 0.006325 µM) was 0.55. For the same compound, the relative viability (NCI-H838; first compound 0.02 µM) was 0.257, the relative viability (NCI-H838; first compound 0.06325 µM) was 0.107 and the relative viability (NCI-H838; first compound 0.2 µM) was 0.114. For the same compound, the relative viability (PC-3 [JPC-3]; first compound 0.002 µM) was 0.463, the relative viability (PC-3 [JPC-3]; first compound 0.006325 µM) was 0.457 and the relative viability (PC-3 [JPC-3]; first compound 0.02 µM) was 0.462. For the same compound, the relative viability (PC-3 [JPC-3]; first compound 0.06325 µM) was 0.472, the relative viability (PC-3 [JPC-3]; first compound 0.2 µM) was 0.242 and the relative viability (SW 1573; first compound 0.002 µM) was 0.39. For the same compound, the relative viability (SW 1573; first compound 0.006325 µM) was 0.339, the relative viability (SW 1573; first compound 0.02 µM) was 0.262 and the relative viability (SW 1573; first compound 0.06325 µM) was 0.0845. For the same compound, the relative viability (SW 1573; first compound 0.2 µM) was 0.0847, the relative viability (SW 900; first compound 0.002 µM) was 0.625 and the relative viability (SW 900; first compound 0.006325 µM) was 0.489. The relative viability (SW 900; first compound 0.02 µM) was 0.344, the relative viability (SW 900; first compound 0.06325 µM) was 0.0721 and the relative viability (SW 900; first compound 0.2 µM) was 0.124. For the same compound, the relative viability (UMC-11; first compound 0.002 µM) was 0.346, the relative viability (UMC-11; first compound 0.006325 µM) was 0.338 and the relative viability (UMC-11; first compound 0.02 µM) was 0.291. It also gave a relative viability (UMC-11; first compound 0.06325 µM) of 0.213 and a relative viability (UMC-11; first compound 0.2 µM) of 0.168.
